Results taken from patent US5801162A, “Dermatan sulfate compositions and antithrombotic compositions containing same” (Seikagaku Kogyo Kabushiki Kaisha (Seikagaku Corporation), priority 1993, dated 1998).

How the values were obtained:
[1] = tested on: activation of plasminogen with single-chain t-PA (sc-tPA); conditions: s-2251
Method: (§1) Fifty microliters each of various concentration of DS (BIDS, CCDS) or chondroitin sulfate (control group), 25 μL of 1.6 μM plasminogen and 25 μL of 20 nM of single or two-chain t-PA, and 100 μL of 0.6 mM a synthetic substrate S-2251 (H-D-Val-L-Leu-L-Lys-p-nitroanilide·2HCl) were mixed and the absorbancy at 405 nm was determined every 2 minutes with an automatic microtiter plate reader. The reaction was carried out at 37° C. in a buffer composed of 60 mM TriS-HCl with Tween^RTM 80.
(§2) The initial rate of activation of plasminogen was calculated as follows; the slope of plots of, .LAMBDA.405, an absorbancy at 405 nm at time t to the square of time (Δ.LAMBDA.405 /Δt^2) was divided by 40,000 (Chibber, B. A. K., et al., Biochemistry, 1985, pp. 3429-3434). The stimulation rate was calculated from ratios to DS or chondroitin sulfate free conditions which was made the initial rate 1 (one).

[2] = tested on: activation of plasminogen with two-chain t-PA (tc-tPA); conditions: s-2251
Method: as §1, §2

## chondroitin sulfate
[1]
  stimulation rate of activation of plasminogen (ratio to DS or chondroitin sulfate free conditions): ≤ 2.5 fold
[2]
  stimulation rate of activation of plasminogen (ratio to DS or chondroitin sulfate free conditions): ≤ 1.5 fold
